Experiments:
Cyperus iria = assay: Preemergence weed control under flooded paddy conditions, CYPIR (Rice Flatsedge); format: in vivo; settings: flooded paddy; for CYPIR: preemergence weeds, herbicidal effect rating 0-9, three to four weeks after treatment; for CYPIR herbicidal effect rating: preemergence, rated three to four weeks after treatment
[1] = test system: Echinochloa oryzoides (Ard.) Fritsch.; assay: Preemergence weed control under flooded paddy conditions, ECHORC (Watergrass (Calif.)); format: in vivo; settings: flooded paddy; for ECHORC: preemergence weeds, herbicidal effect rating 0-9, three to four weeks after treatment; for ECHORC herbicidal effect rating: preemergence, rated three to four weeks after treatment
[2] = test system: Cyperus serotinus, Rottb.; assay: Preemergence weed control under flooded paddy conditions, CYPSE (Flatsedge); format: in vivo; settings: for CYPSE: preemergence weeds, herbicidal effect rating 0-9, three to four weeks after treatment; for CYPSE herbicidal effect rating: preemergence, rated three to four weeks after treatment
[3] = test system: Monochoria vaginalis, Presl.; assay: Preemergence weed control under flooded paddy conditions, MOOVA (Monochoria); format: in vivo; settings: flooded paddy; for MOOVA: preemergence weeds, herbicidal effect rating 0-9, three to four weeks after treatment; for MOOVA herbicidal effect rating: preemergence, rated three to four weeks after treatment
Sagittaria pygmaea, L. = assay: Preemergence weed control under flooded paddy conditions, SAGPY (Arrowhead (Pygmaea)); format: in vivo; settings: flooded paddy; for SAGPY: preemergence weeds, herbicidal effect rating 0-9, three to four weeks after treatment; for SAGPY herbicidal effect rating: preemergence, rated three to four weeks after treatment
[4] = test system: Oryza sativa, (L.) Tebonnet; assay: Rice tolerance to post-transplant applications under flooded paddy conditions (Example 187), ORYSAT (Rice, Tebonnet); settings: for ORYSAT: herbicidal effect rating 0-9, three to four weeks after treatment; for ORYSAT herbicidal effect rating: rated three to four weeks after treatment

`Cn1c(C(F)(F)F)cc(=O)n(-c2ccc3snc(C(=O)Nc4nc(C(F)(F)F)c(Cl)s4)c3c2)c1=O` [Example 439, 1,2-Benzisothiazole-3-carboxamide, N-[5-chloro-4-(trifluoromethyl)thiazol-2-yl]-5-[3,6-dihydro-3-methyl-2,6-dioxo-4-(trifluoromethyl)-1(2H)-pyrimidinyl]-] was tested, and the CYPIR (Cyperus iria; 0.0320 kg/ha) was 1.0, the CYPIR (Cyperus iria; 0.0620 kg/ha) was 3.0 and the CYPIR (Cyperus iria; 0.1250 kg/ha) was 4.0. It also gave a CYPIR (Cyperus iria; 0.2500 kg/ha) of 5.0, an ECHORC ([1]; 0.0320 kg/ha) of 2.0 and an ECHORC ([1]; 0.0620 kg/ha) of 3.0. For the same molecule, the ECHORC ([1]; 0.1250 kg/ha) was 6.0, the ECHORC ([1]; 0.2500 kg/ha) was 6.0 and the CYPSE ([2]; 0.0320 kg/ha) was 0.0. For the same molecule, the CYPSE ([2]; 0.0620 kg/ha) was 0.0, the CYPSE ([2]; 0.1250 kg/ha) was 0.0 and the CYPSE ([2]; 0.2500 kg/ha) was 0.0. It also gave an MOOVA ([3]; 0.0320 kg/ha) of 5.0, an MOOVA ([3]; 0.0620 kg/ha) of 6.0 and an MOOVA ([3]; 0.1250 kg/ha) of 7.0. For the same molecule, the MOOVA ([3]; 0.2500 kg/ha) was 7.0, the SAGPY (Sagittaria pygmaea, L.; 0.0320 kg/ha) was 0.0 and the SAGPY (Sagittaria pygmaea, L.; 0.0620 kg/ha) was 0.0. The SAGPY (Sagittaria pygmaea, L.; 0.1250 kg/ha) was 0.0, the SAGPY (Sagittaria pygmaea, L.; 0.2500 kg/ha) was 3.0 and the ORYSAT ([4]; 0.0320 kg/ha) was 0.0. For the same molecule, the ORYSAT ([4]; 0.0620 kg/ha) was 0.0, the ORYSAT ([4]; 0.1250 kg/ha) was 0.0 and the ORYSAT ([4]; 0.2500 kg/ha) was 0.0.

For `Cn1c(C(F)(F)F)cc(=O)n(-c2ccc3snc(-c4ccccc4OCC(=O)NS(C)(=O)=O)c3c2)c1=O` [Example 268, Acetamide, 2-{o-{5-[3,6-dihydro-3-methyl-2,6-dioxo-4-(trifluoromethyl)-1(2H)-pyrimidinyl]-1,2-benzisothiazol-3-yl}phenoxy}-N-(methylsulfonyl)-], the “CYPIR herbicidal effect rating” value (Cyperus iria; Rate 0.0320 kg/ha) was 1.0, the “CYPIR herbicidal effect rating” value (Cyperus iria; Rate 0.0620 kg/ha) was 3.0 and the “CYPIR herbicidal effect rating” value (Cyperus iria; Rate 0.1250 kg/ha) was 6.0. The “CYPIR herbicidal effect rating” value (Cyperus iria; Rate 0.2500 kg/ha) was 7.5, the “ECHORC herbicidal effect rating” value ([1]; Rate 0.0320 kg/ha) was 1.0 and the “ECHORC herbicidal effect rating” value ([1]; Rate 0.0620 kg/ha) was 3.0. For the same molecule, the “ECHORC herbicidal effect rating” value ([1]; Rate 0.1250 kg/ha) was 4.5, the “ECHORC herbicidal effect rating” value ([1]; Rate 0.2500 kg/ha) was 4.5 and the “CYPSE herbicidal effect rating” value ([2]; Rate 0.0320 kg/ha) was 1.0. The “CYPSE herbicidal effect rating” value ([2]; Rate 0.0620 kg/ha) was 5.5, the “CYPSE herbicidal effect rating” value ([2]; Rate 0.1250 kg/ha) was 9.0 and the “CYPSE herbicidal effect rating” value ([2]; Rate 0.2500 kg/ha) was 9.0. For the same molecule, the “MOOVA herbicidal effect rating” value ([3]; Rate 0.0320 kg/ha) was 7.5, the “MOOVA herbicidal effect rating” value ([3]; Rate 0.0620 kg/ha) was 9.0 and the “MOOVA herbicidal effect rating” value ([3]; Rate 0.1250 kg/ha) was 9.0. For the same molecule, the “MOOVA herbicidal effect rating” value ([3]; Rate 0.2500 kg/ha) was 9.0, the “SAGPY herbicidal effect rating” value (Sagittaria pygmaea, L.; Rate 0.0320 kg/ha) was 0.0 and the “SAGPY herbicidal effect rating” value (Sagittaria pygmaea, L.; Rate 0.0620 kg/ha) was 1.0. The “SAGPY herbicidal effect rating” value (Sagittaria pygmaea, L.; Rate 0.1250 kg/ha) was 1.0, the “SAGPY herbicidal effect rating” value (Sagittaria pygmaea, L.; Rate 0.2500 kg/ha) was 4.0 and the “ORYSAT herbicidal effect rating” value ([4]; Rate 0.0320 kg/ha) was 3.5. For the same molecule, the “ORYSAT herbicidal effect rating” value ([4]; Rate 0.0620 kg/ha) was 4.0, the “ORYSAT herbicidal effect rating” value ([4]; Rate 0.1250 kg/ha) was 5.0 and the “ORYSAT herbicidal effect rating” value ([4]; Rate 0.2500 kg/ha) was 7.5.

For `Cn1c(C(F)(F)F)cc(=O)n(-c2ccc3snc(C(Br)C#N)c3c2)c1=O` (stereo not drawn) [Example 264, 1,2-Benzisothiazole-3-acetonitrile, alpha-bromo-5-[3,6-dihydro-3-methyl-2,6-dioxo-4-(trifluoromethyl)-1(2H)-pyrimidinyl]-], the “CYPIR herbicidal effect rating” value (Cyperus iria; Rate 0.0320 kg/ha) was 5.0, the “CYPIR herbicidal effect rating” value (Cyperus iria; Rate 0.0620 kg/ha) was 5.0 and the “CYPIR herbicidal effect rating” value (Cyperus iria; Rate 0.1250 kg/ha) was 5.0. The “CYPIR herbicidal effect rating” value (Cyperus iria; Rate 0.2500 kg/ha) was 5.0, the “ECHORC herbicidal effect rating” value ([1]; Rate 0.0320 kg/ha) was 0.0 and the “ECHORC herbicidal effect rating” value ([1]; Rate 0.0620 kg/ha) was 0.0. The “ECHORC herbicidal effect rating” value ([1]; Rate 0.1250 kg/ha) was 0.0, the “ECHORC herbicidal effect rating” value ([1]; Rate 0.2500 kg/ha) was 2.0 and the “CYPSE herbicidal effect rating” value ([2]; Rate 0.0320 kg/ha) was 4.0. For the same molecule, the “CYPSE herbicidal effect rating” value ([2]; Rate 0.0620 kg/ha) was 4.0, the “CYPSE herbicidal effect rating” value ([2]; Rate 0.1250 kg/ha) was 9.0 and the “CYPSE herbicidal effect rating” value ([2]; Rate 0.2500 kg/ha) was 9.0. The “MOOVA herbicidal effect rating” value ([3]; Rate 0.0320 kg/ha) was 9.0, the “MOOVA herbicidal effect rating” value ([3]; Rate 0.0620 kg/ha) was 9.0 and the “MOOVA herbicidal effect rating” value ([3]; Rate 0.1250 kg/ha) was 9.0. The “MOOVA herbicidal effect rating” value ([3]; Rate 0.2500 kg/ha) was 9.0, the “SAGPY herbicidal effect rating” value (Sagittaria pygmaea, L.; Rate 0.0320 kg/ha) was 0.0 and the “SAGPY herbicidal effect rating” value (Sagittaria pygmaea, L.; Rate 0.0620 kg/ha) was 0.0. For the same molecule, the “SAGPY herbicidal effect rating” value (Sagittaria pygmaea, L.; Rate 0.1250 kg/ha) was 0.0, the “SAGPY herbicidal effect rating” value (Sagittaria pygmaea, L.; Rate 0.2500 kg/ha) was 0.0 and the “ORYSAT herbicidal effect rating” value ([4]; Rate 0.0320 kg/ha) was 0.0. For the same molecule, the “ORYSAT herbicidal effect rating” value ([4]; Rate 0.0620 kg/ha) was 0.0, the “ORYSAT herbicidal effect rating” value ([4]; Rate 0.1250 kg/ha) was 0.0 and the “ORYSAT herbicidal effect rating” value ([4]; Rate 0.2500 kg/ha) was 5.0.

Reference: patent EP0908457B1, “3-(1,2-benzisothiazol- and isoxazol-5-Y1)-2,4(1H,3H)-pyrimidinedione or thione and 3-(1,2-benzisothiazol- and isoxazol-5-y1)-4(3H)-pyrimidinone or thione herbicidal agents” (BASF AKTIENGESELLSCHAFT, priority 1997, dated 1999)
